In US5330989A, “Heterocycles substituted with biphenyl-3-cyclobutene-1,2-dione derivatives” (American Home Products Corporation, priority 1992, dated 1994):

Tested on: A II-infused rat
Experiment: A II-infused rat model, antihypertensive activity (arterial pressure)
Type: in vivo
Conditions: 3 mg/kg id (duodenal cannula); four hours post-administration; mecamylamine ganglion blockade; A II infusion […]
Protocol: In accordance with their ability to antagonize angiotensin II, the compounds of this invention show antihypertensive activity in the following A II-infused rat model. Rats are anesthetized with Dial-Urethane(0.60 mL/kg, ip) and the trachea cannulated with PE 240. Either one femoral artery and both femoral veins or the carotid artery and the corresponding jugular vein are cannulated with PE 50. If the jugular vein is cannulated, two cannulas are placed in the one vein. The initial portion of the duodenum (just distal to the stomach) is cannulated with PE 50 via a small midline incision. Arterial pressure and heart rate are measured from the arterial cannula. Ten to 15 min are allowed following surgery for stabilization of arterial pressure. Ganglion blockage is then produced by intravenous administration of mecamylamine at 3 mg/kg (1 mL/kg of a 3 mg/mL solution). Ganglion blockade causes a fall in arterial pressure of about 50 mmHg. Mecamylamine is given every 90 min throughout the remainder of the experiment. An A II infusion is then begun into the other venous cannula at 0.25 μg/kg/min (at 9.6 μL/min). The A II infusion returns arterial pressure to or slightly above the control level. Once arterial pressure has stabilized with the A II infusion, baseline values for mean arterial pressure (MAP) and heart rate are taken. […]

O=c1c(O)c(-c2ccccc2-c2ccc(CNc3nc(C(F)(F)F)nc4c3CCCC4)cc2)c1=O [Example 1, 3-hydroxy-4-[4'-[[[5,6,7,8-tetrahydro-2-(trifluoromethyl)-4-quinazolinyl]amino]methyl][1,1'-biphenyl]-2-yl]-3-cyclobutene-1,2-dione]
average lowering of the A II dependent blood pressure: 52%
